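Values below derive from 48-hour exposures of cells grown in 96-well plates, with endpoints linearly interpolated between the two concentrations bracketing the appropriate inhibition level. TGI is the concentration that stops growth completely.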
Assays:
Assay in all cases: NCI anticancer screen, dose series, 48 h
CAKI-1 renal = system: CAKI-1 renal
EKVX NSCLC = system: EKVX NSCLC
UACC-257 melanoma = system: UACC-257 melanoma
K-562 leukemia = system: K-562 leukemia
OVCAR-4 ovarian = system: OVCAR-4 ovarian
MALME-3M melanoma = system: MALME-3M melanoma
SK-MEL-5 melanoma = system: SK-MEL-5 melanoma
SNB-19 CNS = system: SNB-19 CNS
HCT-116 colon = system: HCT-116 colon
KM12 colon = system: KM12 colon
SK-OV-3 ovarian = system: SK-OV-3 ovarian
TK-10 renal = system: TK-10 renal
OVCAR-5 ovarian = system: OVCAR-5 ovarian
SK-MEL-2 melanoma = system: SK-MEL-2 melanoma
NCI-H522 lung = system: NCI-H522 lung
SK-MEL-28 melanoma = system: SK-MEL-28 melanoma
SF-539 CNS = system: SF-539 CNS
CCRF-CEM leukemia = system: CCRF-CEM leukemia
UO-31 renal = system: UO-31 renal
SNB-75 CNS = system: SNB-75 CNS

SMILES: NCC#CCNCCCN1CC1
- TGI (CAKI-1 renal): > 100 µM
- TGI (EKVX NSCLC): > 100 µM
- TGI (UACC-257 melanoma): > 100 µM
- TGI (K-562 leukemia): > 100 µM
- TGI (OVCAR-4 ovarian): > 100 µM
- TGI (MALME-3M melanoma): > 100 µM
- TGI (SK-MEL-5 melanoma): > 100 µM
- TGI (SNB-19 CNS): > 100 µM
- TGI (HCT-116 colon): > 100 µM
- TGI (KM12 colon): > 100 µM
- TGI (SK-OV-3 ovarian): > 100 µM
- TGI (TK-10 renal): > 100 µM
- TGI (OVCAR-5 ovarian): > 100 µM
- TGI (SK-MEL-2 melanoma): > 100 µM
- TGI (NCI-H522 lung): > 100 µM
- TGI (SK-MEL-28 melanoma): > 100 µM
- TGI (SF-539 CNS): > 100 µM

SMILES: Cc1cc2c(cc1Cl)SC(N/N=C(\N)c1ccc(Cl)cc1)=NS2(=O)=O
- TGI (CCRF-CEM leukemia): > 100 µM
- TGI (CAKI-1 renal): > 100 µM
- TGI (EKVX NSCLC): > 100 µM
- TGI (UACC-257 melanoma): > 100 µM
- TGI (K-562 leukemia): > 100 µM
- TGI (OVCAR-4 ovarian): > 100 µM
- TGI (MALME-3M melanoma): > 100 µM
- TGI (SK-MEL-5 melanoma): > 100 µM
- TGI (SNB-19 CNS): > 100 µM
- TGI (HCT-116 colon): > 100 µM
- TGI (KM12 colon): > 100 µM
- TGI (SK-OV-3 ovarian): > 100 µM
- TGI (TK-10 renal): > 100 µM
- TGI (OVCAR-5 ovarian): > 100 µM
- TGI (UO-31 renal): > 100 µM
- TGI (NCI-H522 lung): > 100 µM
- TGI (SK-MEL-28 melanoma): > 100 µM
- TGI (SNB-75 CNS): > 100 µM
- TGI (SF-539 CNS): 84.2 µM

SMILES: C=C(C)CC1=C(OCC)C(OC)(OCC)C1=O (stereo unspecified)
- TGI (CCRF-CEM leukemia): > 100 µM
- TGI (CAKI-1 renal): > 100 µM
- TGI (EKVX NSCLC): > 100 µM
- TGI (UACC-257 melanoma): > 100 µM
- TGI (OVCAR-4 ovarian): > 100 µM
- TGI (SK-MEL-5 melanoma): > 100 µM
- TGI (SNB-19 CNS): > 100 µM
- TGI (HCT-116 colon): > 100 µM
- TGI (KM12 colon): > 100 µM
- TGI (SK-OV-3 ovarian): > 100 µM
- TGI (TK-10 renal): > 100 µM
- TGI (OVCAR-5 ovarian): > 100 µM
- TGI (SK-MEL-2 melanoma): > 100 µM
- TGI (UO-31 renal): > 100 µM
- TGI (NCI-H522 lung): > 100 µM
- TGI (SK-MEL-28 melanoma): > 100 µM
- TGI (SNB-75 CNS): > 100 µM
- TGI (SF-539 CNS): > 100 µM

SMILES: O=C1c2cccnc2S(=O)N1Cc1ccccc1 (stereo unspecified)
- TGI (CCRF-CEM leukemia): > 100 µM
- TGI (CAKI-1 renal): > 100 µM
- TGI (EKVX NSCLC): > 100 µM
- TGI (UACC-257 melanoma): > 100 µM
- TGI (K-562 leukemia): > 100 µM
- TGI (OVCAR-4 ovarian): > 100 µM
- TGI (MALME-3M melanoma): > 100 µM
- TGI (SK-MEL-5 melanoma): > 100 µM
- TGI (SNB-19 CNS): > 100 µM
- TGI (HCT-116 colon): > 100 µM
- TGI (KM12 colon): > 100 µM
- TGI (SK-OV-3 ovarian): > 100 µM
- TGI (TK-10 renal): > 100 µM
- TGI (OVCAR-5 ovarian): > 100 µM
- TGI (UO-31 renal): > 100 µM
- TGI (NCI-H522 lung): > 100 µM
- TGI (SK-MEL-28 melanoma): > 100 µM
- TGI (SNB-75 CNS): > 100 µM
- TGI (SF-539 CNS): > 100 µM

SMILES: O=C1OCC2(CO1)CC1C=CC2C1 (stereo unspecified)
- TGI (CAKI-1 renal): > 100 µM
- TGI (EKVX NSCLC): > 100 µM
- TGI (UACC-257 melanoma): > 100 µM
- TGI (K-562 leukemia): > 100 µM
- TGI (OVCAR-4 ovarian): > 100 µM
- TGI (MALME-3M melanoma): > 100 µM
- TGI (SK-MEL-5 melanoma): > 100 µM
- TGI (SNB-19 CNS): > 100 µM
- TGI (HCT-116 colon): > 100 µM
- TGI (KM12 colon): > 100 µM
- TGI (SK-OV-3 ovarian): > 100 µM
- TGI (TK-10 renal): > 100 µM
- TGI (OVCAR-5 ovarian): > 100 µM
- TGI (SK-MEL-2 melanoma): > 100 µM
- TGI (UO-31 renal): > 100 µM
- TGI (NCI-H522 lung): > 100 µM
- TGI (SK-MEL-28 melanoma): > 100 µM
- TGI (SF-539 CNS): > 100 µM

SMILES: OCC1OC(Oc2cc(O)cc(/C=C\c3ccc(O)cc3)c2)C(O)C(O)C1O (stereo unspecified)
- TGI (CCRF-CEM leukemia): > 100 µM
- TGI (CAKI-1 renal): > 100 µM
- TGI (EKVX NSCLC): > 100 µM
- TGI (UACC-257 melanoma): > 100 µM
- TGI (K-562 leukemia): > 100 µM
- TGI (OVCAR-4 ovarian): > 100 µM
- TGI (SK-MEL-5 melanoma): > 100 µM
- TGI (SNB-19 CNS): > 100 µM
- TGI (HCT-116 colon): > 100 µM
- TGI (KM12 colon): > 100 µM
- TGI (SK-OV-3 ovarian): > 100 µM
- TGI (TK-10 renal): > 100 µM
- TGI (OVCAR-5 ovarian): > 100 µM
- TGI (SK-MEL-2 melanoma): > 100 µM
- TGI (UO-31 renal): > 100 µM
- TGI (NCI-H522 lung): > 100 µM
- TGI (SK-MEL-28 melanoma): > 100 µM
- TGI (SNB-75 CNS): > 100 µM
- TGI (SF-539 CNS): > 100 µM

SMILES: Cc1ccc(OCC2OC(C#N)C(Oc3ccc(C)cc3)C2Oc2ccc(C)cc2)cc1 (stereo unspecified)
- TGI (CCRF-CEM leukemia): > 100 µM
- TGI (CAKI-1 renal): > 100 µM
- TGI (EKVX NSCLC): > 100 µM
- TGI (K-562 leukemia): > 100 µM
- TGI (OVCAR-4 ovarian): > 100 µM
- TGI (SK-MEL-5 melanoma): > 100 µM
- TGI (SNB-19 CNS): > 100 µM
- TGI (HCT-116 colon): > 100 µM
- TGI (KM12 colon): > 100 µM
- TGI (SK-OV-3 ovarian): > 100 µM
- TGI (OVCAR-5 ovarian): > 100 µM
- TGI (SK-MEL-2 melanoma): > 100 µM
- TGI (UO-31 renal): > 100 µM
- TGI (NCI-H522 lung): > 100 µM
- TGI (SK-MEL-28 melanoma): > 100 µM
- TGI (SNB-75 CNS): > 100 µM
- TGI (SF-539 CNS): > 100 µM

SMILES: Cc1cc2c(c(C=Nc3ccc([N+](=O)[O-])cc3)c1)OC1(C=C2)Oc2ccccc2C(=O)N1C (stereo unspecified)
- TGI (CCRF-CEM leukemia): 39.8 µM
- TGI (CAKI-1 renal): 48.4 µM
- TGI (EKVX NSCLC): 43.6 µM
- TGI (UACC-257 melanoma): 42.4 µM
- TGI (K-562 leukemia): 91.5 µM
- TGI (OVCAR-4 ovarian): 64.2 µM
- TGI (SK-MEL-5 melanoma): > 100 µM
- TGI (SNB-19 CNS): > 100 µM
- TGI (HCT-116 colon): 30.9 µM
- TGI (KM12 colon): 46.2 µM
- TGI (SK-OV-3 ovarian): 59.8 µM
- TGI (TK-10 renal): 74.2 µM
- TGI (OVCAR-5 ovarian): 82.5 µM
- TGI (SK-MEL-2 melanoma): 57.9 µM
- TGI (UO-31 renal): 42.3 µM
- TGI (NCI-H522 lung): > 100 µM
- TGI (SK-MEL-28 melanoma): 44.8 µM
- TGI (SNB-75 CNS): 51.8 µM

SMILES: O=C(C#CP(=O)(O)c1ccccc1)c1ccccc1
- TGI (CAKI-1 renal): > 100 µM
- TGI (EKVX NSCLC): > 100 µM
- TGI (UACC-257 melanoma): > 100 µM
- TGI (K-562 leukemia): > 100 µM
- TGI (OVCAR-4 ovarian): > 100 µM
- TGI (MALME-3M melanoma): > 100 µM
- TGI (SK-MEL-5 melanoma): > 100 µM
- TGI (SNB-19 CNS): > 100 µM
- TGI (HCT-116 colon): > 100 µM
- TGI (KM12 colon): > 100 µM
- TGI (SK-OV-3 ovarian): > 100 µM
- TGI (TK-10 renal): > 100 µM
- TGI (OVCAR-5 ovarian): > 100 µM
- TGI (SK-MEL-2 melanoma): > 100 µM
- TGI (UO-31 renal): 4.14 µM
- TGI (NCI-H522 lung): > 100 µM
- TGI (SK-MEL-28 melanoma): > 100 µM
- TGI (SNB-75 CNS): > 100 µM
- TGI (SF-539 CNS): > 100 µM

SMILES: CCCCCCCCCCCCn1c(=O)cc(NCCCC)c2cc3c(NCCCC)cc(=O)n(CCCCCCCCCCCC)c3nc21
- TGI (CAKI-1 renal): > 100 µM
- TGI (UACC-257 melanoma): > 100 µM
- TGI (K-562 leukemia): > 100 µM
- TGI (OVCAR-4 ovarian): > 100 µM
- TGI (MALME-3M melanoma): > 100 µM
- TGI (SK-MEL-5 melanoma): > 100 µM
- TGI (SNB-19 CNS): > 100 µM
- TGI (HCT-116 colon): > 100 µM
- TGI (KM12 colon): > 100 µM
- TGI (SK-OV-3 ovarian): > 100 µM
- TGI (TK-10 renal): > 100 µM
- TGI (SK-MEL-2 melanoma): > 100 µM
- TGI (UO-31 renal): > 100 µM
- TGI (NCI-H522 lung): > 100 µM
- TGI (SK-MEL-28 melanoma): > 100 µM
- TGI (SNB-75 CNS): > 100 µM

SMILES: O=C(NC1CCC(=O)N1C(=O)OCc1ccccc1)OCc1ccccc1 (stereo unspecified)
- TGI (CAKI-1 renal): > 100 µM
- TGI (UACC-257 melanoma): > 100 µM
- TGI (K-562 leukemia): > 100 µM
- TGI (MALME-3M melanoma): > 100 µM
- TGI (SK-MEL-5 melanoma): > 100 µM
- TGI (SNB-19 CNS): > 100 µM
- TGI (KM12 colon): > 100 µM
- TGI (SK-OV-3 ovarian): > 100 µM
- TGI (TK-10 renal): > 100 µM
- TGI (OVCAR-5 ovarian): > 100 µM
- TGI (SK-MEL-2 melanoma): > 100 µM
- TGI (UO-31 renal): > 100 µM
- TGI (NCI-H522 lung): > 100 µM
- TGI (SK-MEL-28 melanoma): > 100 µM
- TGI (SNB-75 CNS): > 100 µM
- TGI (SF-539 CNS): > 100 µM
